Results from patent US20140018380A1, “BICYCLIC HETEROARYL COMPOUNDS AS GPR119 RECEPTOR AGONISTS” (CENTAURUS BIOPHARMA CO., LTD., priority 2011, published 2014).

target: T1, human GPR119 (Homo sapiens, UniProt Q8TDV5); assay: cAMP assay (HTRF) with human GPR119 stable transfected CHO cells; type: cell-based; details: functional agonist activity; intracellular cAMP (HTRF) in human GPR119 stable transfected CHO cells, 30 min at 37° C.
T1 construct: host or cells: CHO cells (American Type Culture Collection)
T1 sequence (Q8TDV5 1-335): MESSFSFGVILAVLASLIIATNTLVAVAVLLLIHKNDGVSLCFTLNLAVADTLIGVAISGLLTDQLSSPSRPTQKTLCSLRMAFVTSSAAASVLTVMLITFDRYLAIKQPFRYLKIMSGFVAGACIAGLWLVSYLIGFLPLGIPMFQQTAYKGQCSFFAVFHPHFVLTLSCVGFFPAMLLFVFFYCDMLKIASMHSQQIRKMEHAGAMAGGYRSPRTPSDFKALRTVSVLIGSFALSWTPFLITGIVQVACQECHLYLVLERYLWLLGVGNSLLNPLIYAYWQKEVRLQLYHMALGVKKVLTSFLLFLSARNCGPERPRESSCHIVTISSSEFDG
Description: Testing of Compounds of the Invention In Vitro (cAMP Assay)
The functional agonist activities of compounds of the invention were characterized using a cAMP assay with human GPR119 stable transfected Chinese hamster ovary (CHO) cells (American Type Culture Collection, Manassas Va., USA). CHO cells were stable transfected with GPR119/pcDNA3.0 (SC307189, Origene). Transfected cells were then selected and maintained in culture media containing […] geneticin. Stable clones were obtained by limiting dilution and the expression of human-GPR119 in CHO cells was confirmed by HTRF (Homogeneous Time-Resolved Fluorescence) cAMP assay. The clones generating the best agonist stimulated signal window were selected for the cAMP assay development.
The cells were cultured in Dulbecco's Modified Eagle Medium (Invitrogen Corporation, Carlsbad, Calif., USA) containing 10% Fetal bovine serum, 1% Pen/Strep and […] G418 and grown in 75 cm2 tissue culture flasks until they reached 75-80% confluence.
The cells were harvested 16 hours prior to assay with 1 ml 0.05% Trypsine, washed with PBS and then plated into 96-well plates (8000 cells/well) containing DMEM medium and 10% BSA. Prior to assay, the cells were washed with assay stimulation buffer (HBSS containing 10 mM IBMX, 20 mM HEPES, 0.1% BSA) twice. Then cells were incubated for 30 min at 37° C. in the absence or presence of varying concentrations of agonists (i.e., the compounds of the present invention) in assay stimulating buffer with 0.1% DMSO. The intracellular levels of cAMP generated in the GPR119 transfected CHO cells were measured using the HTRF kit (CisBio, FR.). In brief, 20 ul d2-labeled cAMP and 20 ul cryptated labeled anti-cAMP antibody were added into 40 ul cells treated with agonist and the plates were incubated for 1 hour at room temperature in the dark. Cells were then transferred into white 96-well plate and the signal generated was measured using Envision (Perkin-Elmer, Norwalk, Conn.). EC50 values were calculated using the GraphPad Prism 5 program.

SMILES | EC50 [nM]
CC(C)(C)OC(=O)N1CCC(n2ccc3cc(-c4ccc(S(C)(=O)=O)cc4)c(F)cc32)CC1 [Example 7, tert-butyl 4-(6-fluoro-5-(4-(methylsulfonyl)phenyl)-1H-indol-1-yl)piperidine-1-carboxylate] | < 100
CC(C)c1noc(N2CCC(n3ccc4cc(-c5ccc(S(C)(=O)=O)cc5)c(F)cc43)CC2)n1 [Example 19, 5-(4-(6-fluoro-5-(4-(methylsulfonyl)phenyl)-1H-indol-1-yl)piperidin-1-yl)-3-isopropyl-1,2,4-oxadiazole] | < 100
CCc1cnc(N2CCC(n3ncc4cc(-c5ccc(-n6cnnn6)cc5)c(F)cc43)CC2)nc1 [Example 17, 5-(4-(1H-tetrazol-1-yl)phenyl)-1-(1-(5-ethylpyrimidin-2-yl)piperidin-4-yl)-6-fluoro-1H-indazole] | < 50
CC(C)(C)OC(=O)N1CCC(n2ncc3cc(-c4ccc(S(C)(=O)=O)cc4)ccc32)CC1 [Example 16, tert-butyl 4-(5-(4-(methylsulfonyl)phenyl)-1H-indazol-1-yl)piperidine-1-carboxylate] | < 300
CCc1cnc(N2CCC(n3ccc4cc(-c5ccc(-n6cnnn6)cc5)c(F)cc43)CC2)nc1 [Example 12, 5-(4-(1H-tetrazol-1-yl)phenyl)-1-(1-(5-ethylpyrimidin-2-yl)piperidin-4-yl)-6-fluoro-1H-indole] | < 2000
CCc1cnc(N2CCC(n3nnc4cc(-c5ccc(-n6cnnn6)cc5)cnc43)CC2)nc1 [Example 2, 6-(4-(1H-tetrazol-1-yl)phenyl)-3-(1-(5-ethylpyrimidin-2-yl)piperidin-4-yl)-3H-[1,2,3]triazol o[4,5-b]pyridine] | < 500
CCc1cnc(N2CCC(n3ccc4cc(-c5ccc(C#N)cc5)c(F)cc43)CC2)nc1 [Example 14, 4-(1-(1-(5-ethylpyrimidin-2-yl)piperidin-4-yl)-6-fluoro-1H-indol-5-yl)benzonitrile] | < 500
CCc1cnc(N2CCC(n3ccc4cc(-c5ccc(-n6cnnn6)cc5)ccc43)CC2)nc1 [Example 3, 5-(4-(1H-tetrazol-1-yl)phenyl)-1-(1-(5-ethylpyrimidin-2-yl)piperidin-4-yl)-1H-indole] | < 300
CCc1cnc(N2CCC(n3ccc4cc(-c5ccc(C#N)c(F)c5)c(F)cc43)CC2)nc1 [Example 13, 4-(1-(1-(5-ethylpyrimidin-2-yl)piperidin-4-yl)-6-fluoro-1H-indol-5-yl)-2-fluorobenzonitrile] | < 500
CC(C)(C)OC(=O)N1CCC(n2ccc3cc(-c4ccc(S(C)(=O)=O)cc4)ccc32)CC1 [Example 10, tert-butyl 4-(5-(4-(methylsulfonyl)phenyl)-1H-indol-1-yl)piperidine-1-carboxylate] | < 200
CCc1cnc(N2CCC(n3ccc4cc(-c5ccc(NS(C)(=O)=O)cc5)c(F)cc43)CC2)nc1 [Example 15, N-(4-(1-(1-(5-ethylpyrimidin-2-yl)piperidin-4-yl)-6-fluoro-1H-indol-5-yl)phenyl)methanesulfonamide] | < 1000

The remaining lines, values ahead:

EC50 [nM] | SMILES
< 200 | CCc1cnc(N2CCC(n3ccc4cc(-c5ccc(S(C)(=O)=O)cc5)ncc43)CC2)nc1 [Example 9, 1-(1-(5-ethylpyrimidin-2-yl)piperidin-4-yl)-5-(4-(methylsulfonyl)phenyl)-1H-pyrrolo[2,3-c]pyridine]
< 500 | CCc1cnc(N2CCC(n3cc(Cl)c4cc(-c5ccc(S(C)(=O)=O)cc5)ccc43)CC2)nc1 [Example 8, 3-chloro-1-(1-(5-ethylpyrimidin-2-yl)piperidin-4-yl)-5-(4-(methylsulfonl)phenyl)-1H-indole]
< 500 | CCc1cnc(N2CCC(n3ccc4cc(-c5ccc(S(C)(=O)=O)cc5F)ccc43)CC2)nc1 [Example 11, 1-(1-(5-ethylpyrimidin-2-yl)piperidin-4-yl)-5-(2-fluoro-4-(methylsulfony)phenyl)-1H-indole]
< 200 | CCc1cnc(N2CCC(n3ncc4cc(-c5ccc(S(C)(=O)=O)cc5)c(F)cc43)CC2)nc1 [Example 18, 1-(1-(5-ethylpyrimidin-2-yl)piperidin-4-yl)-6-fluoro-5-(4-(methylsulfonyl)phenyl)-1H-indazole]
< 100 | CCc1cnc(N2CCC(n3ccc4cc(-c5ccc(S(C)(=O)=O)cc5)c(F)cc43)CC2)nc1 [Example 6, 1-(1-(5-ethylpyrimidin-2-yl)piperidin-4-yl)-6-fluoro-5-(4-(methylsulfony)phenyl)-1H-indole]
< 300 | CCc1cnc(N2CCC(n3ccc4cc(-c5ccc(S(C)(=O)=O)cc5)ccc43)CC2)nc1 [Example 1, 1-(1-(5-ethylpyrimidin-2-yl)piperidin-4-yl)-5-(4-(methylsulfonyl)phenyl)-1H-indole]
< 1000 | CCc1cnc(N2CCC(n3cc(C)c4cc(-c5ccc(S(C)(=O)=O)cc5)ccc43)CC2)nc1 [Example 5, 1-(1-(5-ethylpyrimidin-2-yl)piperidin-4-yl)-3-methyl-5-(4-(methylsulfone)phenyl)-1H-indole]
